Results reported in US6610504B1, “Methods of determining SAM-dependent methyltransferase activity using a mutant SAH hydrolase” (General Atomics, priority 2000, dated 2003).

Assays:
[1] = molecular target: T1, serum vitamin D binding protein (Homo sapiens, UniProt P02774); details: binding to serum vitamin D binding protein, Langmuir isotherm, nonlinear least-squares fit; cited from earlier work
T1 sequence (P02774 17-474): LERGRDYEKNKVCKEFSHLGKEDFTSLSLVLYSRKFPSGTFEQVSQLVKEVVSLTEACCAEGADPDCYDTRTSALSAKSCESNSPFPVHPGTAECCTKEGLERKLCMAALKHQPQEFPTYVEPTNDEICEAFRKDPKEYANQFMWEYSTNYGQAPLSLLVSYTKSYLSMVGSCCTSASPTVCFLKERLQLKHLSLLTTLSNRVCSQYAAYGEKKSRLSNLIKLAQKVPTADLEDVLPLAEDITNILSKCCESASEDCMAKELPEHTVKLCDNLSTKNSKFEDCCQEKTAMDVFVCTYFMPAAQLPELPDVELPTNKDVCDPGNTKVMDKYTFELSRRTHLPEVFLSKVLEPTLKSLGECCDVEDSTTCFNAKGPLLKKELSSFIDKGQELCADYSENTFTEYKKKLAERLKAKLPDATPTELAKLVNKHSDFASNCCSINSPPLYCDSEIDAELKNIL

ALBP = molecular target: T2, ALBP (Mus musculus, UniProt P04117); details: displacement of 1,8-ANS from ALBP, cited from earlier work; for Ki: read-out: apparent inhibitor constant (Ki)
T2 sequence (P04117 1-132): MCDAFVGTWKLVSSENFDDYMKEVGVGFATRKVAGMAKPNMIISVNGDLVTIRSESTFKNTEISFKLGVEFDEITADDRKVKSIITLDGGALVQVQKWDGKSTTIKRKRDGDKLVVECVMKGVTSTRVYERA

KLBP = molecular target: T3, KLBP (Mus musculus, UniProt Q05816); details: displacement of 1,8-ANS from KLBP; cited from earlier work
T3 sequence (Q05816 1-135): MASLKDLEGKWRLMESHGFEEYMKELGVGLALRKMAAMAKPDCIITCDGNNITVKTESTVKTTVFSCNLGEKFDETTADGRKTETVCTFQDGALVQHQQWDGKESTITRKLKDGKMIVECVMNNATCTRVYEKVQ

CRBP = molecular target: T4, CRBP (Homo sapiens, UniProt P09455); details: displacement of 1,8-ANS from CRBP; cited from earlier work
T4 sequence (P09455 1-135): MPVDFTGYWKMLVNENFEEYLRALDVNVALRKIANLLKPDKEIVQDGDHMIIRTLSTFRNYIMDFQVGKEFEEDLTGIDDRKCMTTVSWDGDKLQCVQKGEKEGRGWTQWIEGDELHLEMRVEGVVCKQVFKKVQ

[2] = molecular target: cellular retinoic acid-binding protein I (CRABPI) (Homo sapiens, UniProt P29762); details: read-out: apparent dissociation constant; probe binding to CRABPI; cited from earlier work
[3] = molecular target: T5, keratinocyte lipid-binding protein (KLBP) (Mus musculus, UniProt Q05816); details: read-out: apparent dissociation constant (Kd); probe binding to KLBP; cited from earlier work
T5 sequence (Q05816 1-135): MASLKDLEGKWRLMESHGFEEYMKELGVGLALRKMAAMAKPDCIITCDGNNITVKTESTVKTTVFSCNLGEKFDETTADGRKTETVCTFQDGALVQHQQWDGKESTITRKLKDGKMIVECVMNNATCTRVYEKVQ

[4] = molecular target: T6, cellular retinol-binding protein (CRBP) (Homo sapiens, UniProt P09455); details: read-out: apparent dissociation constant; probe binding to CRBP; cited from earlier work
T6 sequence (P09455 1-135): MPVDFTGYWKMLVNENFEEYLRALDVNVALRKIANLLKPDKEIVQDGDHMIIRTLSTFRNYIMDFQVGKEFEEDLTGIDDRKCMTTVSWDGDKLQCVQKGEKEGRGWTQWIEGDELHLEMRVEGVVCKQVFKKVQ

SAH hydrolase = molecular target: T7, SAH hydrolase (Homo sapiens, UniProt P23526); assay: SAH hydrolase activity, hydrolytic direction (kinetic constants for SAH); format: biochemical; details: substrate SAH
T7 construct: made in house; host or cells: E. coli JM109, vector pKK223-3
Procedure: The assay of SAH hydrolase activity in the hydrolytic direction was performed as described in Yuan et al., J. Biol. Chem., 271:28008-28016, 1996). The assay measures the hydrolysis of SAH into Ado and Hcy. The reaction product Hcy was derivatized by thiol specific reagent DTNB for colometric determination at 412 nm. The assay for SAH hydrolase in the synthetic direction was measured by the formation of SAH from substrate Ado and Hcy using HPLC (see, Yuan et al., J. Biol. Chem., 268:17030-17037 (1993). One unit of the enzyme activity was defined as the amount of enzyme that can hydrolyze or synthesize 1 μmole of SAH/min/mg.
Mutant SAH hydrolase (e.g., F302S) was specifically fluorescence labels on Cys421, an non-essential cysteine residue which is located on the surface of the protein that is not involved in substrate binding and catalysis. Cys421 residue is readily accessible by thiol reactive molecules, and can be modified without effect the binding affinity of the enzyme. Thiol specific reactive probes such as 7-diethylamino-3(4′-maleimidylphenyl)-4-methylcoumarin (CPM) can specifically label protein thiols. Mutant SAH hydrolase (F302S) (0.5 mg/ml) in 50 mM phosphate buffer, pH 7.2, was incubated with 2 mM of adenine to protect other thiols in the substrate binding site, followed by addition of CPM to final concentration of 50 μM. The reaction mixture was incubated at room temperature for 30 min. followed by gel filtration on a size exclusion column (Sephacryl S-300, […]×60 cm) to remove adenine and excess CPM. The CPM-labeled F302S mutant SAH hydrolase (2 mg/ml) was kept in 50 mM phosphate buffer containing 20% glycerol at −20° C. The comparison of Km (SAH) and Kcat (SAH) for wild type and mutant F302S is shown below in Table 10.

T7 sequence (P23526 whole entry): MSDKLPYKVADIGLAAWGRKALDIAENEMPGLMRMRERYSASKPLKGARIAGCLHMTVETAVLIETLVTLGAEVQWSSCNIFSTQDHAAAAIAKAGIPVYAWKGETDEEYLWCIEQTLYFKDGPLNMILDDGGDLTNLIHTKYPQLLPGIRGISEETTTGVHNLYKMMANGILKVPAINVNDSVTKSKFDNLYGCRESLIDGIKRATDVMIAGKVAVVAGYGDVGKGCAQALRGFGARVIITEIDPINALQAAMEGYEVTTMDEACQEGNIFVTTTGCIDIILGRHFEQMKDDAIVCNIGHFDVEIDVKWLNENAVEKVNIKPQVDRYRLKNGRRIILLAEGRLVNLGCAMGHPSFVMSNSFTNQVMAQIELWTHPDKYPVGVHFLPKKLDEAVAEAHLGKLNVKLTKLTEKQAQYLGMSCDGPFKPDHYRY
Chain of cellular retinoic acid-binding protein I (CRABPI) (P29762 whole entry, species assumed): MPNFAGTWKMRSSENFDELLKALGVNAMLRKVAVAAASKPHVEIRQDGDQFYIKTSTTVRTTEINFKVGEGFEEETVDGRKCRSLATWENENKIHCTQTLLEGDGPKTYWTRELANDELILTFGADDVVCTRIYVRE

25-hydroxyvitamin D
Kd [1]: 5.59 µM

CC1=C(/C=C/C(C)=C/C=C/C(C)=C/CO)C(C)(C)CCC1 [all-trans-retinol]
displacement of the fluorophore from ALBP (ALBP): did not displace
bound by KLBP (KLBP): neither octanoic acid nor all-trans-retinol were bound

CCCCC/C=C\C/C=C\C/C=C\C/C=C\CCCC(=O)O [arachidonic acid]
Ki (KLBP): 400 nM

CC1=C(/C=C/C(C)=C/C=C/C(C)=C/C=O)C(C)(C)CCC1 [all-trans-retinal]
Ki (CRBP): 1.7 µM

CCCCCCCC(=O)O [octanoic acid]
displacement of the fluorophore from ALBP (ALBP): did not displace
bound by KLBP (KLBP): neither octanoic acid nor all-trans-retinol were bound

O=S(=O)(O)c1cccc2cccc(Nc3ccccc3)c12 [1,8-ANS, 1-anilinonapthalene 8-sulfonic acid]
Kd [2]: 25 µM
Kd [3]: 530 nM
Kd [4]: 7.7 µM

CCCCCCCC/C=C\CCCCCCCC(=O)O [Oleic acid]
Ki (ALBP): 134 nM
Ki (KLBP): 420 nM

vitamin D
Kd [1]: 91.7 µM

CC1=C(/C=C/C(C)=C/C=C/C(C)=C/C(=O)O)C(C)(C)CCC1 [all-trans-retinoic acid]
Ki (CRBP): 5.3 µM
Ki (ALBP): 870 nM
Ki (KLBP): 3600 nM

B1: wild type: Human placental SAH hydrolase, wild type, expressed in E. coli JM109 (protein, UniProt P23526 2-432, looked up)
Adenosylhomocysteinase: SDKLPYKVADIGLAAWGRKALDIAENEMPGLMRMRERYSASKPLKGARIAGCLHMTVETAVLIETLVTLGAEVQWSSCNIFSTQDHAAAAIAKAGIPVYAWKGETDEEYLWCIEQTLYFKDGPLNMILDDGGDLTNLIHTKYPQLLPGIRGISEETTTGVHNLYKMMANGILKVPAINVNDSVTKSKFDNLYGCRESLIDGIKRATDVMIAGKVAVVAGYGDVGKGCAQALRGFGARVIITEIDPINALQAAMEGYEVTTMDEACQEGNIFVTTTGCIDIILGRHFEQMKDDAIVCNIGHFDVEIDVKWLNENAVEKVNIKPQVDRYRLKNGRRIILLAEGRLVNLGCAMGHPSFVMSNSFTNQVMAQIELWTHPDKYPVGVHFLPKKLDEAVAEAHLGKLNVKLTKLTEKQAQYLGMSCDGPFKPDHYRY
Kcat (SAH) (SAH hydrolase): 3.8 S^−1
Km (SAH hydrolase): 7.9 µM

B2: F302S: Mutant human SAH hydrolase, Phe 302 to Ser (protein, UniProt P23526 2-432, looked up, variant F302S)
Adenosylhomocysteinase: SDKLPYKVADIGLAAWGRKALDIAENEMPGLMRMRERYSASKPLKGARIAGCLHMTVETAVLIETLVTLGAEVQWSSCNIFSTQDHAAAAIAKAGIPVYAWKGETDEEYLWCIEQTLYFKDGPLNMILDDGGDLTNLIHTKYPQLLPGIRGISEETTTGVHNLYKMMANGILKVPAINVNDSVTKSKFDNLYGCRESLIDGIKRATDVMIAGKVAVVAGYGDVGKGCAQALRGFGARVIITEIDPINALQAAMEGYEVTTMDEACQEGNIFVTTTGCIDIILGRHFEQMKDDAIVCNIGHSDVEIDVKWLNENAVEKVNIKPQVDRYRLKNGRRIILLAEGRLVNLGCAMGHPSFVMSNSFTNQVMAQIELWTHPDKYPVGVHFLPKKLDEAVAEAHLGKLNVKLTKLTEKQAQYLGMSCDGPFKPDHYRY
Kcat (SAH) (SAH hydrolase): 0.1 S^−1
Km (SAH hydrolase): 1 µM
